Assay results reported in patent US10294202B2, “Pyrrolidinones as herbicides” (FMC Corporation, priority 2013, dated 2019).

How the values were obtained:
pigweed = assay: Test A pre-/postemergence herbicide test; format: in vivo, Amaranthus retroflexus
How it was run: (§1)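 Scoring was visual, relative to untreated controls, on a 0–100 scale after about 10 greenhouse days. Preemergence treatment used a directed soil spray over seeded loam/sand; postemergence treatment targeted one- to two-leaf plants of 2–10 cm.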

velvetleaf = assay: Test A pre-/postemergence herbicide test; format: in vivo, Abutilon theophrasti
How it was run: as §1

giant foxtail = assay: Test A pre-/postemergence herbicide test; format: in vivo, Setaria faberii
How it was run: as §1

ducksalad = assay: Test B flooded paddy test; format: in vivo, Heteranthera limosa; conditions: Flood, scale of 0 to 100 where 0 is no effect and 100 is complete control
How it was run: (§2)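 Scoring: visual, compared with untreated controls, 0 = no effect through 100 = complete control, taken 13 to 15 days after treatment in the greenhouse. Compounds had been added to paddy water over soil flooded 3 cm deep at the plants' 2-leaf stage.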

rice = assay: Test B flooded paddy test; format: in vivo, Oryza sativa; conditions: Flood, scale of 0 to 100 where 0 is no effect and 100 is complete control
Method: (§3) Plant species in the flooded paddy test selected from rice (Oryza sativa), sedge, umbrella (small-flower umbrella sedge, Cyperus difformis), ducksalad (Heteranthera limosa), and barnyardgrass (Echinochloa crus-galli) were grown to the 2-leaf stage for testing. At time of treatment, test pots were flooded to 3 cm above the soil surface, treated by application of test compounds directly to the paddy water, and then maintained at that water depth for the duration of the test. Treated plants and controls were maintained in a greenhouse for 13 to 15 days, after which time all species were compared to controls and visually evaluated. Plant response ratings, summarized in Table B, are based on a scale of 0 to 100 where 0 is no effect and 100 is complete control. A dash (-) response means no test result.

morningglory = assay: Test A pre-/postemergence herbicide test; format: in vivo, Ipomoea spp.
How it was run: as §1

barnyardgrass [1] = assay: Test A pre-/postemergence herbicide test; format: in vivo, Echinochloa crus-galli
How it was run: as §1

crabgrass, large = assay: Test A pre-/postemergence herbicide test; format: in vivo, Digitaria sanguinalis
How it was run: as §1

wheat = assay: Test A pre-/postemergence herbicide test; format: in vivo, Triticum aestivum
How it was run: as §1

barnyardgrass [2] = assay: Test B flooded paddy test; format: in vivo, Echinochloa crus-galli; conditions: Flood, scale of 0 to 100 where 0 is no effect and 100 is complete control
How it was run: as §2

sedge, umbrella = assay: Test B flooded paddy test; format: in vivo, Cyperus difformis; conditions: Flood, scale of 0 to 100 where 0 is no effect and 100 is complete control
Method: as §3

corn = assay: Test A pre-/postemergence herbicide test; format: in vivo, Zea mays
How it was run: as §1

[3] = Postemergence, 125 g ai/ha, 0 to 100 scale, 0 is no effect, 100 is complete control
[4] = Postemergence, 500 g ai/ha, 0 to 100 scale (0 no effect, 100 complete control)
[5] = Preemergence, 125 g ai/ha, 0 to 100 scale where 0 is no effect and 100 is complete control
[6] = preemergence, 500 g ai/ha, 0 to 100 scale, 0 is no effect and 100 is complete control
[7] = Postemergence, 125 g ai/ha, 0 to 100 scale, 0 no effect, 100 complete control
[8] = Preemergence, 125 g ai/ha, visual rating on 0 to 100 scale (0 no effect, 100 complete control)
[9] = preemergence, 500 g ai/ha, 0 to 100 scale
[10] = preemergence, 500 g ai/ha, 0 to 100 scale (0 no effect, 100 complete control)
[11] = 125 g ai/ha, visual rating, 0 to 100 scale, 0 no effect, 100 complete control, approximately 10 days, preemergence

SMILES: O=C1NCC(c2ccc(OC(F)(F)F)cc2)C1C(=O)Nc1ccccc1F (racemic) [Compound 256]
- Plant response rating, Pigweed (pigweed; [3]): 0
- Plant response rating, Pigweed (pigweed; [4]): 0
- Plant response rating, Pigweed (pigweed; [5]): 0
- Plant response rating, Pigweed (pigweed; [6]): 0
- Plant response rating, Velvetleaf (velvetleaf; [3]): 0
- Plant response rating, Velvetleaf (velvetleaf; [4]): 0
- Plant response rating, Velvetleaf (velvetleaf; [5]): 0
- Plant response rating, Velvetleaf (velvetleaf; [6]): 0
- Plant response rating, Foxtail, Giant (giant foxtail; [3]): 40
- Plant response rating, Foxtail, Giant (giant foxtail; [4]): 70
- Plant response rating, Foxtail, Giant (giant foxtail; [5]): 20
- Plant response rating, Foxtail, Giant (giant foxtail; [6]): 60
- Plant response rating, Ducksalad (ducksalad; 250 g ai/ha): 60
- Plant response rating, Rice (rice; 250 g ai/ha): 0
- Plant response rating, Morningglory (morningglory; [3]): 0
- Plant response rating, Morningglory (morningglory; [4]): 0
- Plant response rating, Morningglory (morningglory; [5]): 0
- Plant response rating, Morningglory (morningglory; [6]): 0
- Plant response rating, Barnyardgrass (barnyardgrass [1]; [3]): 0
- Plant response rating, Barnyardgrass (barnyardgrass [1]; [4]): 20
- Plant response rating, Barnyardgrass (barnyardgrass [1]; [5]): 0
- Plant response rating, Barnyardgrass (barnyardgrass [1]; [6]): 20
- Plant response rating, Crabgrass, Large (crabgrass, large; [3]): 70
- Plant response rating, Crabgrass, Large (crabgrass, large; [4]): 90
- Plant response rating, Crabgrass, Large (crabgrass, large; [5]): 80
- Plant response rating, Crabgrass, Large (crabgrass, large; [6]): 90
- Plant response rating, Wheat (wheat; [3]): 0
- Plant response rating, Wheat (wheat; [4]): 20
- Plant response rating, Wheat (wheat; [5]): 0
- Plant response rating, Wheat (wheat; [6]): 0
- Plant response rating, Barnyardgrass (barnyardgrass [2]; 250 g ai/ha): 0
- Plant response rating, Sedge, Umbrella (sedge, umbrella; 250 g ai/ha): 50
- Plant response rating, Corn (corn; [3]): 0
- Plant response rating, Corn (corn; [4]): 0
- Plant response rating, Corn (corn; [5]): 0
- Plant response rating, Corn (corn; [6]): 0

SMILES: O=C1NCC(c2ccc3c(c2)OC(F)(F)O3)C1C(=O)Nc1ccccc1C(F)(F)F (racemic) [Compound 75]
- Plant response rating, Pigweed (pigweed; [7]): 0
- Plant response rating, Pigweed (pigweed; [4]): 0
- Pigweed plant response rating (pigweed; [8]): 0
- Plant response rating, Pigweed (pigweed; [9]): 0
- Plant response rating, Velvetleaf (velvetleaf; [7]): 10
- Plant response rating, Velvetleaf (velvetleaf; [4]): 20
- Velvetleaf plant response rating (velvetleaf; [8]): 0
- Plant response rating, Velvetleaf (velvetleaf; [9]): 0
- Plant response rating, Foxtail, Giant (giant foxtail; [7]): 70
- Plant response rating, Foxtail, Giant (giant foxtail; [4]): 80
- Foxtail, Giant plant response rating (giant foxtail; [8]): 80
- Plant response rating, Foxtail, Giant (giant foxtail; [9]): 90
- Plant response rating, Ducksalad (ducksalad; 250 g ai/ha): 0
- Plant response rating, Rice (rice; 250 g ai/ha): 0
- Plant response rating, Morningglory (morningglory; [7]): 0
- Plant response rating, Morningglory (morningglory; [4]): 0
- Morningglory plant response rating (morningglory; [8]): 0
- Plant response rating, Morningglory (morningglory; [9]): 0
- Plant response rating, Barnyardgrass (barnyardgrass [1]; [7]): 40
- Plant response rating, Barnyardgrass (barnyardgrass [1]; [4]): 70
- Barnyardgrass plant response rating (barnyardgrass [1]; [8]): 50
- Plant response rating, Barnyardgrass (barnyardgrass [1]; [10]): 70
- Plant response rating, Crabgrass, Large (crabgrass, large; [7]): 60
- Plant response rating, Crabgrass, Large (crabgrass, large; [4]): 80
- Crabgrass, Large plant response rating (crabgrass, large; [8]): 90
- Plant response rating, Crabgrass, Large (crabgrass, large; [9]): 90
- Plant response rating, Wheat (wheat; [7]): 0
- Plant response rating, Wheat (wheat; [4]): 30
- Wheat plant response rating (wheat; [8]): 0
- Plant response rating, Wheat (wheat; [9]): 30
- Plant response rating, Barnyardgrass (barnyardgrass [2]; 250 g ai/ha): 0
- Plant response rating, Sedge, Umbrella (sedge, umbrella; 250 g ai/ha): 0
- Plant response rating, Corn (corn; [7]): 0
- Plant response rating, Corn (corn; [4]): 0
- Corn plant response rating (corn; [8]): 0
- Plant response rating, Corn (corn; [9]): 0

SMILES: O=C1NCC(c2ccc3ccccc3c2)C1C(=O)Nc1ccccc1F (racemic) [Compound 115]
- Plant response rating, Pigweed (pigweed; [11]): 0
- Plant response rating, Pigweed (pigweed; [7]): 0
- Pigweed plant response rating (0 to 100 scale, 0 is no effect, 100 is complete control) (pigweed; Postemergence, 500 g ai/ha): 0
- Plant response rating, Pigweed (pigweed; [9]): 0
- Plant response rating, Velvetleaf (velvetleaf; [11]): 0
- Plant response rating, Velvetleaf (velvetleaf; [7]): 0
- Velvetleaf plant response rating (0 to 100 scale, 0 is no effect, 100 is complete control) (velvetleaf; Postemergence, 500 g ai/ha): 0
- Plant response rating, Velvetleaf (velvetleaf; [9]): 0
- Plant response rating, Foxtail, Giant (giant foxtail; [11]): 20
- Plant response rating, Foxtail, Giant (giant foxtail; [7]): 0
- Foxtail, Giant plant response rating (0 to 100 scale, 0 is no effect, 100 is complete control) (giant foxtail; Postemergence, 500 g ai/ha): 10
- Plant response rating, Foxtail, Giant (giant foxtail; [9]): 20
- Plant response rating, Ducksalad (ducksalad; 1000 g ai/ha): 90
- Plant response rating, Rice (rice; 1000 g ai/ha): 0
- Plant response rating, Morningglory (morningglory; [11]): 0
- Plant response rating, Morningglory (morningglory; [7]): 0
- Morningglory plant response rating (0 to 100 scale, 0 is no effect, 100 is complete control) (morningglory; Postemergence, 500 g ai/ha): 0
- Plant response rating, Morningglory (morningglory; [9]): 0
- Plant response rating, Barnyardgrass (barnyardgrass [1]; [11]): 0
- Plant response rating, Barnyardgrass (barnyardgrass [1]; [7]): 10
- Plant response rating, Barnyardgrass (barnyardgrass [1]; [4]): 50
- Plant response rating, Barnyardgrass (barnyardgrass [1]; [10]): 50
- Plant response rating, Crabgrass, Large (crabgrass, large; [11]): 70
- Plant response rating, Crabgrass, Large (crabgrass, large; [7]): 0
- Crabgrass, Large plant response rating (0 to 100 scale, 0 is no effect, 100 is complete control) (crabgrass, large; Postemergence, 500 g ai/ha): 50
- Plant response rating, Crabgrass, Large (crabgrass, large; [9]): 80
- Plant response rating, Wheat (wheat; [11]): 0
- Plant response rating, Wheat (wheat; [7]): 0
- Wheat plant response rating (0 to 100 scale, 0 is no effect, 100 is complete control) (wheat; Postemergence, 500 g ai/ha): 0
- Plant response rating, Wheat (wheat; [9]): 0
- Plant response rating, Barnyardgrass (barnyardgrass [2]; 1000 g ai/ha): 20
- Plant response rating, Sedge, Umbrella (sedge, umbrella; 1000 g ai/ha): 0
- Plant response rating, Corn (corn; [11]): 0
- Plant response rating, Corn (corn; [7]): 0
- Plant response rating, Corn (corn; [4]): 0
- Plant response rating, Corn (corn; [9]): 0
